Read-outs that look alike come from different tables or passages of the source.
What was measured:
PI3Kα = biological target: T1, PI3Kα (Homo sapiens, UniProt P42336); assay: PI3K alpha enzyme inhibition (TR-FRET assay / Leadseeker SPA assay); format: biochemical; details: in at least one experimental run; read-out: IC50 against PI3Kα
T1 construct: His; made in house
Description: Compounds of the present invention were tested according to the following assays and found as inhibitors of PI3 kinases, particularly PI3Kα. The exemplified compounds were tested and found active against PI3Kα. The IC50's ranged from about 1 nM to 10 μM.
The PI3-Kinase assay has been developed and optimized from a kit produced by Upstate (Millipore). Briefly, this kit contains a biotinylated PIP3 which forms a HTRF (homogeneous time-resolved fluorescence energy transfer) complex when mixed with a Europium labeled anti-GST monoclonal antibody, a GST tagged pleckstrin homology (PH) domain, and Streptavidin-Allophycocyanin (APC). The unlabeled PIP3 produced by PI 3-Kinase activity displaces biotin-PIP3 from the complex resulting in a loss of energy transfer and thus a decrease in signal. Millipore, PI 3-Kinase (human) HTRF™ Assay, technical document associated with catalog #33-017
Compounds are serially diluted (3-fold in 100% DMSO) across a polypropylene 120 μL mother plate from column 1 to column 12 and column 13 to column 24, leaving columns 6 and 18 containing only DMSO to yield 11 concentrations for each test compound. Once titrations are made, 0.1 μL is transferred to the assay plates (Greiner 784075). This assay plate contains three controls: column 6 with DMSO, and column 18 with alternating 20 μM wortmannin and 40 μM PIP3. […] The PIP3 control is dispensed into the plate manually via a matrix pipettor, 1 μL of 200 μM PIP3 in 1× Reaction buffer to wells 18 B, D, F, H, J, L, N, P.
The PI3-Kinase assay has been developed and optimized from a kit produced by Upstate (Millipore). The assay kit (cat: 33-017) contains seven reagents: 1) 4× Reaction Buffer, 2) PIP2 (1 mM), 3) Stop A, 4) Stop B, 5) Detection Mix A, 6) Detection Mix B, 7) Detection Mix C. In addition the following items were obtained or purchased, PI3Kinase (prepared in-house), 4× PI3K Detection Buffer (Millipore), dithiothreitol (Sigma, D-5545), Adenosine-5′-triphosphate (ATP, Sigma, A-6419), PIP3 (1,2-dioctanoyl-sn-glycero-3-[phosphoinositil-3,4,5-triphosphate]tetraammonium salt (Avanti polar lipids, 850186P), DMSO (Sigma, 472301), Wortmannin (Sigma, W-1628).
Prepare 1× PI3Kinase Reaction Buffer by diluting stock 1:4 with de-ionized water, freshly prepared DTT is added at a final concentration of 5 mM on the day of use. Enzyme addition and compound preincubation is initiated by the addition of 2.5 μL of 2× enzyme solution, PI3K alpha in 1× reaction buffer, to all wells using a Multidrop Combi. Plates are incubated at room temperature for 15 minutes. Substrate addition and reaction initiation is completed by the addition of 2.5 μL of 2× substrate solution, PIP2 and ATP in 1× reaction buffer, to all wells using a Multidrop Combi. […] Incubate one hour, evaluate the HTRF signal on the Envision plate reader. […]

Class I PI3-kinases = details: cited from earlier work
CK2 protein kinase = CK2 protein kinase (Homo sapiens, UniProt P68400); details: background statement; cited from earlier work
Sequence of CK2 protein kinase (P68400 whole entry): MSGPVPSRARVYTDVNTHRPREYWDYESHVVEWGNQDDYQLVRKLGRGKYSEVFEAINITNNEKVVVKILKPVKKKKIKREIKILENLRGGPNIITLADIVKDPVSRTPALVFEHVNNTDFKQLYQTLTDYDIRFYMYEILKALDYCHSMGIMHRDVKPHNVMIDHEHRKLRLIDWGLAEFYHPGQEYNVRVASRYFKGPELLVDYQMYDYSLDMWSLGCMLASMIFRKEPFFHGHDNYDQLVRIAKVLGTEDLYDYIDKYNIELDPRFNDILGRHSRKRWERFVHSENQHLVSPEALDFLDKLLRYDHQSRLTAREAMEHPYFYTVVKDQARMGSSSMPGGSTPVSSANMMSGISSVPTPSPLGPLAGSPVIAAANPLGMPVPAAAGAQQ

T1 sequence (P42336 whole entry): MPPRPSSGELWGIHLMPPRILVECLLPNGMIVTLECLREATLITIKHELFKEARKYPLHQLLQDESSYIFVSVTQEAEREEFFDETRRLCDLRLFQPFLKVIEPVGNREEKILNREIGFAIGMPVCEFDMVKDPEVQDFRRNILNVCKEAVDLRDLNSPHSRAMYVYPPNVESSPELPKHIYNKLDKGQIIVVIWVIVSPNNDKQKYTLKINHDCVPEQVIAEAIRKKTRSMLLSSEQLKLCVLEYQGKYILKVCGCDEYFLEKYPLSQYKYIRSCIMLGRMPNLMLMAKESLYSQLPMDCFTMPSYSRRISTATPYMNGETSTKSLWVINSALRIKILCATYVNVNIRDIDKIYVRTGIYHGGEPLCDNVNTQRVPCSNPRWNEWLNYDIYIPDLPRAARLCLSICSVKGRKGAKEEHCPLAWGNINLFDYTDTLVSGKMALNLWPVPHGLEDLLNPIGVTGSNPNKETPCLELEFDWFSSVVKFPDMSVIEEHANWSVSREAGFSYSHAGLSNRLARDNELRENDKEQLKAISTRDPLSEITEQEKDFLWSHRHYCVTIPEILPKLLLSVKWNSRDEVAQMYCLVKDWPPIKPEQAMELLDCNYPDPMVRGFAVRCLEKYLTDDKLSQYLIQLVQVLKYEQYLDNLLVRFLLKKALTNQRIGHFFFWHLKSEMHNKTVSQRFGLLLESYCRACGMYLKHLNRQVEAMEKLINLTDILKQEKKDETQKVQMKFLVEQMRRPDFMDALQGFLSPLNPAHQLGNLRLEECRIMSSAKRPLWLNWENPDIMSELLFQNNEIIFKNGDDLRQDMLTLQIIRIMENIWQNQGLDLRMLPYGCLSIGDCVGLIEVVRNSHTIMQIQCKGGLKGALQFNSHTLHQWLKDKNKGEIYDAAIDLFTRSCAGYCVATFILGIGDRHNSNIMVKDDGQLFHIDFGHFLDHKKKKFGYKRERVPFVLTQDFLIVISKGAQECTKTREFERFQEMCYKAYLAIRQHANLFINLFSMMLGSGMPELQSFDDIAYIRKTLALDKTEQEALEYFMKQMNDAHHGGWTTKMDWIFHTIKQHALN
T1 sequence (P27986 whole entry partner): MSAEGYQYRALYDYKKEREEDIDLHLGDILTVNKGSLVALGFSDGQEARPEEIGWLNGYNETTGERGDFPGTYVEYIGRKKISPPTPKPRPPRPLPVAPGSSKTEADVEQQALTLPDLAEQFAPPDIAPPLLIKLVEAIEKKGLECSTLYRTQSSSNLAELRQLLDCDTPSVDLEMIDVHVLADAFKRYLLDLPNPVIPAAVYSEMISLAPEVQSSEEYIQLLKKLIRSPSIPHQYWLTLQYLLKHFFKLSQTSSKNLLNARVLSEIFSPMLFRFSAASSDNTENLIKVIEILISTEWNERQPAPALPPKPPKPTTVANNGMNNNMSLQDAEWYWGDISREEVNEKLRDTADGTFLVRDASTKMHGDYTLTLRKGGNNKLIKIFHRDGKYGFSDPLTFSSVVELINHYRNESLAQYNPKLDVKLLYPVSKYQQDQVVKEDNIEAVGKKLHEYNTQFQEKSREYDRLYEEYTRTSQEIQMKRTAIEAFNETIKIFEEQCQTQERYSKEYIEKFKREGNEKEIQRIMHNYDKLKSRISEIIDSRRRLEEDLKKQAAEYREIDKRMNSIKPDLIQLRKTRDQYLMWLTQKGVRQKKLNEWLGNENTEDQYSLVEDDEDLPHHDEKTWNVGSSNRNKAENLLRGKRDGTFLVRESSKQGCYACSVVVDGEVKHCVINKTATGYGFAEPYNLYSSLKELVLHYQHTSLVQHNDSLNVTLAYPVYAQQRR

SMILES	IC50 (PI3Kα)	other results
CNc1ncc(-c2cnc(Cl)c(NS(=O)(=O)c3ccccc3)c2)cn1 [Example 29, N-{2-chloro-5-[2-(methylamino)-5-pyrimidinyl]-3-pyridinyl}benzenesulfonamide]	0.1 µM	–
O=S(=O)(Nc1cc(-c2cn[nH]c2)cnc1Cl)c1ccccc1 [Example 22, N-[2-chloro-5-(1H-pyrazol-4-yl)-3-pyridinyl]benzenesulfonamide]	0.316 µM	–
COC[C@H]1OC(=O)c2coc3c2[C@@]1(C)C1=C(C3=O)[C@@H]2CCC(=O)[C@@]2(C)C[C@H]1OC(C)=O [wortmannin]	–	IC50 (Class I PI3-kinases; wortmannin, background statement, read-out: IC50 against each of the various Class I PI3-kinases): 0.001 to 0.01 µM
O=c1cc(N2CCOCC2)oc2c(-c3ccccc3)cccc12 [LY294002]	–	IC50 (CK2 protein kinase): 5 to 10 µM; IC50 (Class I PI3-kinases; Fruman et al. 1998, read-out: IC50 against each of these PI3-kinases): 15 to 20 µM
O=S(=O)(Nc1cc(-c2ccc3nccn3c2)cnc1Cl)c1ccccc1 [Example 35, N-(2-chloro-5-imidazo[1,2-a]pyridin-6-yl-3-pyridinyl)benzenesulfonamide]	0.013 µM	–
O=S(=O)(Nc1cc(-c2ccc3ccccc3c2)cnc1Cl)c1ccccc1 [Example 27, N-[2-chloro-5-(2-naphthalenyl)-3-pyridinyl]benzenesulfonamide]	0.631 µM	–
